Measurements: PubChem BioAssay AID1963437 (Molecular Pharmacology Branch, DTP, NCI, 2024)

System: OVCAR-8 complex spheroid, growth inhibition
Assay: Anticancer human tumor OVCAR-8 cell line growth inhibition [Asc];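 note: spheroids exposed to agents for 7 days before readout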;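 for viability, T/C: percent viability relative to DMSO vehicle wells taken as 100%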
Conditions: for IC50: curve of first compound; for viability, T/C: stronger effect = lower value
How it was run: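 Stromal components (HUVEC and hMSC) are co-assembled with the cancer cells into multicellular spheroids. Drugs are then added singly or paired, at concentrations falling by half-log increments from a clinically achievable maximum, capped at 10 microM without known Cmax.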

[1] = second compound 0.0316 µM, first compound 0.00316 µM
[2] = second compound 0.0316 µM, first compound 0.01 µM
[3] = second compound 0.0316 µM, first compound 0.0316 µM
[4] = second compound 0.0316 µM, first compound 0.1 µM
[5] = second compound 0.1 µM, first compound 0.00316 µM
[6] = second compound 0.1 µM, first compound 0.01 µM
[7] = second compound 0.1 µM, first compound 0.0316 µM
[8] = second compound 0.1 µM, first compound 0.1 µM
[9] = second compound 0.316 µM, first compound 0.00316 µM
[10] = second compound 0.316 µM, first compound 0.01 µM
[11] = second compound 0.316 µM, first compound 0.0316 µM
[12] = second compound 0.316 µM, first compound 0.1 µM
[13] = second compound 1 µM, first compound 0.00316 µM
[14] = second compound 1 µM, first compound 0.01 µM
[15] = second compound 1 µM, first compound 0.0316 µM
[16] = second compound 1 µM, first compound 0.1 µM
[17] = second compound 3.16 µM, first compound 0.00316 µM
[18] = second compound 3.16 µM, first compound 0.01 µM
[19] = second compound 3.16 µM, first compound 0.0316 µM
[20] = second compound 3.16 µM, first compound 0.1 µM
[21] = second compound 10 µM, first compound 0.00316 µM
[22] = second compound 10 µM, first compound 0.01 µM
[23] = second compound 10 µM, first compound 0.0316 µM
[24] = second compound 10 µM, first compound 0.1 µM

For `Cn1ncnc1[C@H]1c2n[nH]c(=O)c3cc(F)cc(c23)N[C@@H]1c1ccc(F)cc1` + Cc1c(S(C)(=O)=O)c(-c2cc(F)cc(N3CCN(c4ccc(NS(=O)(=O)c5ccc(NC(CCN6CCC(C(=O)OCCCP(=O)(O)O)CC6)CSc6ccccc6)c(S(=O)(=O)C(F)(F)F)c5)cc4)CC3)c2)c(-c2ccc(Cl)cc2)n1C(C)C, the IC50 (second compound 0.0316 µM) was over 100 nM, the IC50 (second compound 0.1 µM) was over 100 nM and the IC50 (second compound 0.316 µM) was over 100 nM. The IC50 (second compound 1 µM) was over 100 nM, the IC50 (second compound 3.16 µM) was over 100 nM and the IC50 (second compound 10 µM) was over 100 nM. It also gave a viability, T/C (second compound 0.0316 µM, first compound 0.000316 µM) of 96.3%, a viability, T/C (second compound 0.0316 µM, first compound 0.001 µM) of 94.8% and a viability, T/C [1] of 90%. The viability, T/C [2] was 103%, the viability, T/C [3] was 127% and the viability, T/C [4] was 149%. The viability, T/C (second compound 0.1 µM, first compound 0.000316 µM) was 103%, the viability, T/C (second compound 0.1 µM, first compound 0.001 µM) was 106% and the viability, T/C [5] was 115%. The viability, T/C [6] was 123%, the viability, T/C [7] was 123% and the viability, T/C [8] was 155%. For the same compound, the viability, T/C (second compound 0.316 µM, first compound 0.000316 µM) was 122%, the viability, T/C (second compound 0.316 µM, first compound 0.001 µM) was 101% and the viability, T/C [9] was 111%. It also gave a viability, T/C [10] of 101%, a viability, T/C [11] of 141% and a viability, T/C [12] of 158%. For the same compound, the viability, T/C (second compound 1 µM, first compound 0.000316 µM) was 106%, the viability, T/C (second compound 1 µM, first compound 0.001 µM) was 109% and the viability, T/C [13] was 106%. The viability, T/C [14] was 110%, the viability, T/C [15] was 125% and the viability, T/C [16] was 160%. It also gave a viability, T/C (second compound 3.16 µM, first compound 0.000316 µM) of 130%, a viability, T/C (second compound 3.16 µM, first compound 0.001 µM) of 120% and a viability, T/C [17] of 92.8%. It also gave a viability, T/C [18] of 115%, a viability, T/C [19] of 138% and a viability, T/C [20] of 161%. It also gave a viability, T/C (second compound 10 µM, first compound 0.000316 µM) of 124%, a viability, T/C (second compound 10 µM, first compound 0.001 µM) of 93.1% and a viability, T/C [21] of 88.3%. It also gave a viability, T/C [22] of 127%, a viability, T/C [23] of 169% and a viability, T/C [24] of 164%.
In the case of `O=C(c1ccc(F)c(F)c1Nc1ccc(I)cc1F)N1CC(O)([C@@H]2CCCCN2)C1` + Cc1c(S(C)(=O)=O)c(-c2cc(F)cc(N3CCN(c4ccc(NS(=O)(=O)c5ccc(NC(CCN6CCC(C(=O)OCCCP(=O)(O)O)CC6)CSc6ccccc6)c(S(=O)(=O)C(F)(F)F)c5)cc4)CC3)c2)c(-c2ccc(Cl)cc2)n1C(C)C, the IC50 (second compound 0.0316 µM) is reported as over 1000 nM, the IC50 (second compound 0.1 µM) is reported as over 1000 nM and the IC50 (second compound 0.316 µM) is reported as over 1000 nM. It also gave an IC50 (second compound 1 µM) of over 1000 nM, an IC50 (second compound 3.16 µM) of over 1000 nM and an IC50 (second compound 10 µM) of over 1000 nM. The viability, T/C [1] was 103%, the viability, T/C [2] was 114% and the viability, T/C [3] was 140%. The viability, T/C [4] was 173%, the viability, T/C (second compound 0.0316 µM, first compound 0.316 µM) was 234% and the viability, T/C (second compound 0.0316 µM, first compound 1 µM) was 135%. It also gave a viability, T/C [5] of 110%, a viability, T/C [6] of 134% and a viability, T/C [7] of 160%. The viability, T/C [8] was 199%, the viability, T/C (second compound 0.1 µM, first compound 0.316 µM) was 254% and the viability, T/C (second compound 0.1 µM, first compound 1 µM) was 122%. For the same compound, the viability, T/C [9] was 115%, the viability, T/C [10] was 115% and the viability, T/C [11] was 157%. For the same compound, the viability, T/C [12] was 204%, the viability, T/C (second compound 0.316 µM, first compound 0.316 µM) was 244% and the viability, T/C (second compound 0.316 µM, first compound 1 µM) was 139%. For the same compound, the viability, T/C [13] was 129%, the viability, T/C [14] was 157% and the viability, T/C [15] was 195%. For the same compound, the viability, T/C [16] was 228%, the viability, T/C (second compound 1 µM, first compound 0.316 µM) was 258% and the viability, T/C (second compound 1 µM, first compound 1 µM) was 126%. For the same compound, the viability, T/C [17] was 125%, the viability, T/C [18] was 137% and the viability, T/C [19] was 197%. The viability, T/C [20] was 228%, the viability, T/C (second compound 3.16 µM, first compound 0.316 µM) was 253% and the viability, T/C (second compound 3.16 µM, first compound 1 µM) was 99.5%. For the same compound, the viability, T/C [21] was 154%, the viability, T/C [22] was 141% and the viability, T/C [23] was 183%. For the same compound, the viability, T/C [24] was 224%, the viability, T/C (second compound 10 µM, first compound 0.316 µM) was 234% and the viability, T/C (second compound 10 µM, first compound 1 µM) was 107%.
